Data published in patent US11187660B2, “Fluorescent probes for monitoring voltage by photo-induced electron transfer” (The Regents of the University of California, priority 2011, dated 2021).

Key:
HEK cells = assay: Bleach rate in HEK cells; assay type: cell-based, human; conditions: for bleach rate: HEK cells, 7 W/cm^2; for bleach rate, fold smaller than di-4-ANEPPS: identical illumination conditions
Experimental: The dibutyl (VFx.4.Cl) dyes stain the cell membranes of HEK293 cells when loaded at a concentration of 2 μM for 15 min at 37° C. in buffer with 0.1% DMSO as cosolvent (FIG. 9A, and FIG. 10). […] The bleach rates of the probes were tested in HEK cells and compared with di-4-ANEPPS. The bleach rates for VF1.4.Cl, VF2.4.Cl, and VF2.1.Cl at 7 W/cm^2 were measured to be 3.9±0.1×10^−2 s^−1, 1.8±0.1×10^−2 s^−1, and 8.0±0.1×10^−3 s^−1, respectively.
For studies to determine excitation sensitivity of dyes, illumination was provided by a Polychrom IV light source (T.I.L.L. Photonics GMBH) with a mechanical shutter (Uniblitz VS25). For all other studies, light was provided by an Xenon arc lamp powered by an Optiquip Power supply (Optiquip) with a mechanical shutter controlled by a Lambda 10-2 controller (Sutter). Light from the Xenon arc lamp was filtered through a 480 nm filter (30 nm bandpass, Chroma), a 510 nm dichroic (Semrock), a 530 nm emission filter (50 nm bandpass, Semrock), and focused through a 40×/1.4 oil objective. For di-4-ANEPPS imaging, a 625 nm emission filter with a 50 nm bandpass was used. Bleaching studies used identical illumination conditions (480/30 nm excitation, 510 nm dichroic, 7 W/cm^2 output) and were corrected by normalizing for the extinction coefficient at the excitation wavelengths (465-495 nm).

[1] = Absorbance and emission spectra in aqueous buffer with Triton X-100; assay type: physicochemical; conditions: 5 mM sodium phosphate, pH 9, 0.1% Triton X-100
Experimental: FIG. 8A, FIG. 8B, and FIG. 8C show the normalized absorbance and emission spectra for exemplary compounds of the invention in 5 mM sodium phosphate, pH 9 with 0.1% Triton X-100. Black lines are absorbance spectra; grey lines are emission spectra. a) VF1.4.Cl, b) VF2.4.Cl, and c) VF2.1.Cl.
All dyes feature emission and excitation profiles typical of dichlorofluoresceins (VF1.4.Cl: λmax=521 nm, ε=93,000 M^−1·cm^−1, λem=534 nm, Φ=0.24; VF2.4.Cl: λmax=522 nm, ε=97,000 M^−1·cm^−1, λem=536 nm, Φ=0.054; VF2.1.Cl: λmax=522 nm, ε=98 000 M^−1·cm^−1, λcm=535 nm, Φ=0.057, 5 mM sodium phosphate, pH 9, 0.1% Triton X-100) (FIG. 8).
UV absorbance and fluorescence spectra were recorded on a Cary 3E (Varian) and Fluorolog 2 (Spex) fluorimeter, respectively. Analytical, semi-preparative, and preparative HPLCs were performed on Agilent HPLCs, with Luna C18(2) columns (Phenomenex) using water (solvent A) and acetonitrile (solvent B) with 0.05% TFA as an additive. Low resolution ESI mass spectrometry was performed on an Agilent LC/MSD Trap XCT coupled to an Agilent HPLC. High resolution mass spectra were acquired on a ThermoFisher Orbitrap XL hybrid mass spectrometer. ^1H NMR spectra were collected in CDCl3 or d6-DMSO (Cambridge Isotope Laboratories, Cambridge, Mass.) at 25° C. on a 400 Varian Mercury Plus or Jeol ECA 500 spectrometer at the Department of Chemistry and Biochemistry NMR Facility at the University of California, San Diego. All chemical shifts are reported in the standard δ notation of parts per million using the peak of residual proton signals of CDCl3 or d6-DMSO as an internal reference.

## CN(C)c1ccc(/C=C/c2ccc(/C=C/c3ccc(-c4c5cc(Cl)c(=O)cc-5oc5cc(O)c(Cl)cc45)c(S(=O)(=O)O)c3)cc2)cc1 [VF2.1.Cl, 5-(4-(4-(dimethyllamino)styryl)styryl)-2-(2,7-dichloro-6-hydroxy-3-oxo-3H-xanthen-9-yl)benzenesulfonic acid]
HEK cells
  bleach rate: 8.0±0.1×10^−3 s^−1
  bleach rate, fold smaller than di-4-ANEPPS: ninefold smaller
[1]
  Φ: 0.057
  ε: 98 000 M^−1·cm^−1
  λem: 535 nm
  λmax: 522 nm

## CCCCN(CCCC)c1ccc(/C=C/c2ccc(/C=C/c3ccc(-c4c5cc(Cl)c(=O)cc-5oc5cc(O)c(Cl)cc45)c(S(=O)(=O)O)c3)cc2)cc1 [VF2.4.Cl, 5-(4-(4-(dibutylamino)styryl)styryl)-2-(2,7-dichloro-6-hydroxy-3-oxo-3H-xanthen-9-yl)benzenesulfonic acid]
HEK cells
  bleach rate: 1.8±0.1×10^−2 s^−1
  bleach rate, fold smaller than di-4-ANEPPS: four-
[1]
  Φ: 0.054
  ε: 97,000 M^−1·cm^−1
  λem: 536 nm
  λmax: 522 nm
